According to patent publication US12527785B2, “Renin-angiotensin-aldosterone system (RAAS) inhibitors in the treatment of pancreatic ductal carcinoma” (OCHSNER CLINIC FOUNDATION, priority 2023, dated 2026):

Key:
[1] = system: PANC-1 tumor orthotopic xenograft; experiment: PANC-1 tumor orthotopic xenograft mouse model (BLI tumor burden, tumor weight); format: in vivo; conditions: four weeks; for Tumor weight, % of control / Tumor weight, mean: Table 19; for Tumor weight, mean: control 0.425; for BLI data, mean: control 3.003
Text: Human PDCA cell line PANC-1 was transduced with pre-made lentiviral vectors encoding luciferase (firefly)/red fluorescent protein (RFP) to enable monitoring of the growth of primary tumor and metastasis. […] For in vivo experiments, Nonobese diabetic/severe combined immunodeficiencyNOD-SCID mice (Jackson Labs, Bar Harbor, ME, or inhouse breeding) were first brought under anesthesia with isoflurane (2.5% in 100% oxygen, 1 L/min) in an induction chamber and maintained under adequate anesthesia (isoflurane inhalation) while being laid on a warming pad throughout the surgical procedure. For tumor generation, 5×10^4 luciferase-tagged PANC-1 cells were co-inoculated with 3×10^5 lymph node stromal cell (LNSC) analog HK cells. The mice received a 0.75-1.2 cm long incision (on the left side of the body slightly medial to the splenic silhouette) to exteriorize the spleen and pancreas. While gently retracting the pancreas laterally, a 30 G needle was inserted along the length of the pancreas from the tail to the pancreatic head region. Then, 10 μl of cell suspension was injected as the needle was withdrawn to the mid-body of the pancreas. The needle was removed, and the area was inspected for leakage and bleeding. The pancreas and spleen were internalized with forceps and the abdominal muscle layer was closed with interrupted stitches (3-0 silk suture). The overlying skin was closed with a second set of interrupted stitches. Buprenorphine SR-LAB was injected subcutaneously immediately after the surgery for pain relief.
After the surgery, tumor growth and metastatic tumor burden were monitored and assessed weekly for luciferase activity by bioluminescence imaging (BLI) using Lago Imaging System (Spectral Instruments Imaging, Tucson, AZ). Mice were anesthetized using isoflurane for all imaging procedures. Mice were administered intraperitoneally with luciferin (10 mg/kg) and imaged in 10-20 minutes for maximum luciferase signal plateau. Images were analyzed using Aura Imaging software. Once the BLI levels of xenografted tumor reached 5×10^8 photons (around 7-9 weeks post PANC-1 cell injection), the mice were grouped based on their BLI level and compounds (e.g., drugs) of the present disclosure were given by gavage daily to each group for 4 weeks. […] Upon sacrifice after 4 weeks of treatment, primary tumors and mouse organs were harvested, weighed, imaged, and formalin-fixed for (hematoxylin and eosin) H&E and immunohistochemistry staining. Data was statistically analyzed using t-test, or t-test with Bonferroni correction.

[2] = mouse, in vivo; cited from earlier work
PANC-1 cells = experiment: WST1 cell proliferation assay, PANC-1 cells; format: cell-based, human
Description: (§1) PDA cell line (PANC-1 or HS766T) or patient cancer cells (PaCa9) were trypsinized with 1% trypsin in Hank's Balanced Salt Solution (HBSS), counted, washed, and resuspended in serum free AIM media (ThermoFisher Scientific, Waltham, MA) or complete Dulbecco's Modified Eagle Medium (DMEM) supplemented with 10% fetal bovine serum, […], 100 U/ml of penicillin G, and […] of streptomycin. Cells at a concentration of 2-4×10^4 cells/well in 100 μl culture medium were seeded in triplicate in 96 well plates, then cultured in a humidified incubator at 37° C. and 5% CO2. On the next day, cell supernatant was discarded and compounds (e.g., drugs) of the present disclosure in 200 μl medium were added with the concentrations indicated in the following Examples. After 72 hours of culture, cell proliferation reagent WST1 (20 μl/well, Sigma Aldrich Inc, St. Louis, MO) were added and plates were read using an ELISA reader at 2 hours and 4 hours under the wavelength of 450 nm. The measured absorbance (OD value) was recorded and graphed and statistically analyzed using GraphPad Prism 8, t-test, or t-test with Bonferroni correction.

HS766T cells = experiment: WST1 cell proliferation assay, HS766T cells; format: cell-based
Description: as §1

[3] = system: PaCa-9 PDAC patient tumor cells; experiment: WST1 cell proliferation assay, PaCa-9 PDAC patient tumor cells; format: cell-based, human; conditions: for cell proliferation, WST1 absorbance (OD value, 450 nm), mean: 10% FCS-DMEM
Description: as §1, with “Louis, MO) were added and plates were read using an ELISA reader at 2 hours and 4 hours under the wavelength of 450 nm.” left out

[4] = system: PDCA cells (PANC-1, HS766T, PaCa9); experiment: In vitro PDCA cell proliferation (WST1), summary statements over the cell lines tested; format: cell-based
Description: as §1

[5] = 0.1 mg/kg by subcutaneous injection; cited from earlier work
[6] = Candesartan Cilexitil (60 mg/kg)

## CCOc1nc2cccc(C(=O)OC(C)OC(=O)OC3CCCCC3)c2n1Cc1ccc(-c2ccccc2-c2nnn[nH]2)cc1 (stereo not shown) [Candesartan Cilexitil]
[1]; [6]
  Tumor weight, % of control: 38%
  Tumor weight, mean: 0.163 g
[2]
  Safety of oral administration to mice: safely

## CCOc1nc2cccc(C(=O)O)c2n1Cc1ccc(-c2ccccc2-c2nnn[nH]2)cc1 [Candesartan]
PANC-1 cells; 20 μM
  Effective (statistically significant, p<0.05, decrease in cell proliferation by WST1 assay): effective
PANC-1 cells; Candesartan 20 μM, Table 5A, 10% FCS-DMEM, 2×10^4 cells per well, Medium/DMSO 3.348
  cell proliferation, WST1 absorbance (OD value, 450 nm), mean: 0.612
HS766T cells; 20 μM
  Effective (statistically significant, p<0.05, decrease in cell proliferation by WST1 assay): effective
HS766T cells; Candesartan 10 μM, Table 2, 2 h, 10% FCS-DMEM, control 3.214
  cell proliferation, WST1 absorbance (OD value, 450 nm), mean: 2.856
HS766T cells; Candesartan 20 μM, Table 6A, 10% FCS-DMEM, 2×10^4 cells per well, control 3.339
  cell proliferation, WST1 absorbance (OD value, 450 nm), mean: 0.620
[3]; 20 μM
  Effective (statistically significant, p<0.05, decrease in cell proliferation by WST1 assay): effective
[3]; Candesartan 10 μM, Table 3, 1 h, Medium/DMSO 3.571
  cell proliferation, WST1 absorbance (OD value, 450 nm), mean: 3.694
[3]; Candesartan 20 μM, Table 7A, 2×10^4 cells per well, control 3.535
  cell proliferation, WST1 absorbance (OD value, 450 nm), mean: 0.464
[1]; Candesartan (30 mg/kg)
  BLI data, % of control: 67%
  BLI data, mean: 2.016
[4]; PANC-1, Hs766T and PaCa9 cells
  Minimum effective dose (concentration) in vitro: ~20 µM
[4]; candesartan 10 μM
  Change in cellular proliferation: no statistical change in cellular proliferation

## CCCCc1nc(Cl)c(CO)n1Cc1ccc(-c2ccccc2-c2nn[nH]n2)cc1 [Losartan]
PANC-1 cells; Losartan 100 μM, Table 1, 2 h, 10% FCS-DMEM, control 3.618
  cell proliferation, WST1 absorbance (OD value, 450 nm), mean: 2.507
PANC-1 cells; Losartan 100 μM, Table 5A, 10% FCS-DMEM, 2×10^4 cells per well, Medium/DMSO 3.348
  cell proliferation, WST1 absorbance (OD value, 450 nm), mean: 3.699
HS766T cells; Losartan 100 μM, Table 2, 2 h, 10% FCS-DMEM, control 3.214
  cell proliferation, WST1 absorbance (OD value, 450 nm), mean: 2.992
HS766T cells; Losartan 100 μM, Table 6A, 10% FCS-DMEM, 2×10^4 cells per well, control 3.339
  cell proliferation, WST1 absorbance (OD value, 450 nm), mean: 3.182
[3]; Losartan 100 μM, Table 3, 1 h, Medium/DMSO 3.571
  cell proliferation, WST1 absorbance (OD value, 450 nm), mean: 3.392
[3]; Losartan 100 μM, Table 7A, 2×10^4 cells per well, control 3.535
  cell proliferation, WST1 absorbance (OD value, 450 nm), mean: 3.161
[1]; Losartan (60 mg/kg)
  BLI data, % of control: 73%
  Tumor weight, % of control: 87%
  Tumor weight, mean: 0.3691 g
  BLI data, mean: 2.199
[4]; losartan 100 μM
  Change in cellular proliferation: no statistical change in cellular proliferation

## Cc1cc(Cn2cnc3c2C[C@@H](C(=O)O)N(C(=O)C(c2ccccc2)c2ccccc2)C3)ccc1N(C)C [PD123319]
PANC-1 cells; 10 μM, Table 8, 2 h, DMEM-10% FCS, control 3.922
  cell proliferation, WST1 absorbance (OD value, 450 nm), mean: 2.724
PANC-1 cells; 10 μM, Table 10, 2 h, serum free media, control 3.443
  cell proliferation, WST1 absorbance (OD value, 450 nm), mean: 2.120
PANC-1 cells; 10 μM, Table 12, 2 h, 10% FCS DMEM, N = 6, control 3.37
  cell proliferation, WST1 absorbance (OD value, 450 nm), mean: 2.823
PANC-1 cells; 10 μM, Table 14, 2 h, serum free media, N = 6, control 1.208
  cell proliferation, WST1 absorbance (OD value, 450 nm), mean: 1.048
PANC-1 cells; 30 μM, Table 8, 2 h, DMEM-10% FCS, control 3.922
  cell proliferation, WST1 absorbance (OD value, 450 nm), mean: 2.60
PANC-1 cells; 30 μM, Table 10, 2 h, serum free media, control 3.443
  cell proliferation, WST1 absorbance (OD value, 450 nm), mean: 1.970
PANC-1 cells; 30 μM, Table 12, 2 h, 10% FCS DMEM, N = 6, control 3.37
  cell proliferation, WST1 absorbance (OD value, 450 nm), mean: 2.854
PANC-1 cells; 30 μM, Table 14, 2 h, serum free media, N = 6, control 1.208
  cell proliferation, WST1 absorbance (OD value, 450 nm), mean: 0.7668
PANC-1 cells; 50 μM, Table 8, 2 h, DMEM-10% FCS, N = 1, control 3.922
  cell proliferation, WST1 absorbance (OD value, 450 nm), mean: 1.951
PANC-1 cells; 50 μM, Table 10, 2 h, serum free media, control 3.443
  cell proliferation, WST1 absorbance (OD value, 450 nm), mean: 2.146
PANC-1 cells; 50 μM, Table 12, 2 h, 10% FCS DMEM, N = 6, control 3.37
  cell proliferation, WST1 absorbance (OD value, 450 nm), mean: 2.873
PANC-1 cells; 50 μM, Table 14, 2 h, serum free media, N = 6, control 1.208
  cell proliferation, WST1 absorbance (OD value, 450 nm), mean: 0.728
HS766T cells; 10 μM, Table 9, 2 h, DMEM-10% FCS, control 2.025
  cell proliferation, WST1 absorbance (OD value, 450 nm), mean: 1.336
HS766T cells; 10 μM, Table 11, 2 h, serum free media, control 2.0695
  cell proliferation, WST1 absorbance (OD value, 450 nm), mean: 1.24
HS766T cells; 10 μM, Table 13, 2 h, 10% FCS DMEM, control 2.913
  cell proliferation, WST1 absorbance (OD value, 450 nm), mean: 2.895
HS766T cells; 10 μM, Table 15, 2 h, serum free media, N = 6, control 1.906
  cell proliferation, WST1 absorbance (OD value, 450 nm), mean: 1.708
HS766T cells; 30 μM, Table 11, 2 h, serum free media, control 2.0695
  cell proliferation, WST1 absorbance (OD value, 450 nm), mean: 1.397
HS766T cells; 30 μM, Table 13, 2 h, 10% FCS DMEM, control 2.913
  cell proliferation, WST1 absorbance (OD value, 450 nm), mean: 2.555
HS766T cells; 30 μM, Table 15, 2 h, serum free media, N = 6, control 1.906
  cell proliferation, WST1 absorbance (OD value, 450 nm), mean: 1.56
HS766T cells; 50 μM, Table 11, 2 h, serum free media, control 2.0695
  cell proliferation, WST1 absorbance (OD value, 450 nm), mean: 1.235
HS766T cells; 50 μM, Table 13, 2 h, 10% FCS DMEM, control 2.913
  cell proliferation, WST1 absorbance (OD value, 450 nm), mean: 1.886
HS766T cells; 50 μM, Table 15, 2 h, serum free media, N = 6, control 1.906
  cell proliferation, WST1 absorbance (OD value, 450 nm), mean: 1.154
[4]; 10 μM, 30 μM, and 50 μM, presence or absence of serum
  Effective in inhibiting PDCA cell proliferation in vitro: effective
[5]
  Activity in rats: active

## CC(=O)S[C@@H]1CC2=CC(=O)CC[C@]2(C)[C@H]2CC[C@@]3(C)[C@@H](CC[C@@]34CCC(=O)O4)[C@H]12 [Spironolactone]
[1]; Spironolactone (100 mg/kg)
  Tumor weight, % of control: 69%
  Tumor weight, mean: 0.292 g
